# Experimental data from US20250302751A1, “FORMULATIONS FOR ADM[…], norLAAM AND dinorLAAM AND METHODS OF THEIR USE TO TREAT OPIOID USE DISORDER” (VIRGINIA COMMONWEALTH UNIVERSITY, priority 2022, published 2025).
# Where two headings read alike, the source gives them in different places.
# Key:
# [1] = Plasma pharmacokinetics of LAAM in rabbits (intravenous, oral, buccal); details: rabbit
# Experimental: Twenty-four New Zealand white rabbits of mixed gender (weighing 3.6-4.0 kg) were obtained from ENVIGO and used in this study. […] All animal protocols were approved by the Institutional Animal Care and Use Committee at the Virginia Commonwealth University. […] Rabbits were anesthetized following an intramuscular injection of ketamine (50 mg/kg) and xylazine (5-7 mg/kg), followed by applying buccal films (1 mg/kg) into the buccal pouch. […] An oral solution (1 mg/kg) was administered by an oral syringe (1 mL), followed by an injection of ketamine/xylazine. After anesthesia, a catheter was inserted via the marginal ear vein for blood collection before dosing and at pre-determined time points (30 min before and at 5, 15, 30 min, and 1, 2, 3, 4, 8, 12, 24, 48, 72, 96, and 120 h) following administration. Eppendorf tubes contained EDTA (0.5 M) to prevent blood coagulation. Blood samples were placed on ice immediately following the collection for no longer than 5 min, plasma was separated by centrifugation (3000 g, at 0° C. for 3 min) and stored at −80° C. until analysis. At the endpoint (120 h), all animals were sacrificed. Urine, interest tissues (buccal mucosa, kidney, spleen, liver, gallbladder, muscle, brain, and spinal cord, mesenteric fat, perirenal fat, neck fat, inguinal fat) were harvested and stored at −80° C. until analysis. The buccal mucosa tissues and control in contact with fiber film formulations were collected for histopathological analysis using H&E staining. […] Non-compartmental analysis (NCA) was applied to calculate pharmacokinetic parameters derived from plasma concentration-time profiles. The absolute bioavailability was subsequently calculated by comparing respective AUCs, as shown by the following equation: […]
# [2] = weak base; cited from earlier work
# [3] = humans; cited from earlier work
# [4] = rats; cited from earlier work
# [5] = high permeability according to the FDA; cited from earlier work
# [6] = both, New Zealand white, plasma, iv, 0.8 mg/kg
# [7] = both, New Zealand white, plasma, po, 1 mg/kg
SMILES,"AUC(0-inf) [1, 6] [ng·h/mL]","AUC(0-t) [1, 6] [ng·h/mL]","C0 [1, 6] [ng/mL]","Vd [1, 6] [L/kg]","clearance [1, 6] [mL/min/kg]","AUC(0-inf) [1, 7] [ng·h/mL]","AUC(0-t) [1, 7] [ng·h/mL]","Cmax [1, 7] [ng/mL]","Tmax [1, 7] [min]","LAAM F (%), bioavailability, calculated by AUCinf ([1]; LAAM oral solution 1 mg/kg) [%]",pKa [2],Oral bioavailability (Foral %) [3],Oral bioavailability (Foral %) [4] [%],Permeability of model drug [5] [×10⁻⁶ cm/s]
"CC[C@H](OC(C)=O)C(C[C@H](C)N(C)C)(c1ccccc1)c1ccccc1 [LAAM, [(3S,6S)-6-(dimethylamino)-4,4-diphenylheptan-3-yl]acetate]",284 ± 94.7,274 ± 91.6,288 ± 133,30.6 ± 6.3,51.7,69.5 ± 10,65.7 ± 10.1,20.7 ± 3.4,24 ± 12,19.6 ± 2.8,9.87,approximately 50%,~60,
COCCc1ccc(OCC(O)CNC(C)C)cc1 (centres unmarked) [metoprolol],,,,,,,,,,,,,,11
